Consider 43 compounds from patent US11230541B2, “Heterocyclic compound” (Takeda Pharmaceutical Company Limited, priority 2017, dated 2022).

T1 sequence (Q13224 27-1484, other chains not shown): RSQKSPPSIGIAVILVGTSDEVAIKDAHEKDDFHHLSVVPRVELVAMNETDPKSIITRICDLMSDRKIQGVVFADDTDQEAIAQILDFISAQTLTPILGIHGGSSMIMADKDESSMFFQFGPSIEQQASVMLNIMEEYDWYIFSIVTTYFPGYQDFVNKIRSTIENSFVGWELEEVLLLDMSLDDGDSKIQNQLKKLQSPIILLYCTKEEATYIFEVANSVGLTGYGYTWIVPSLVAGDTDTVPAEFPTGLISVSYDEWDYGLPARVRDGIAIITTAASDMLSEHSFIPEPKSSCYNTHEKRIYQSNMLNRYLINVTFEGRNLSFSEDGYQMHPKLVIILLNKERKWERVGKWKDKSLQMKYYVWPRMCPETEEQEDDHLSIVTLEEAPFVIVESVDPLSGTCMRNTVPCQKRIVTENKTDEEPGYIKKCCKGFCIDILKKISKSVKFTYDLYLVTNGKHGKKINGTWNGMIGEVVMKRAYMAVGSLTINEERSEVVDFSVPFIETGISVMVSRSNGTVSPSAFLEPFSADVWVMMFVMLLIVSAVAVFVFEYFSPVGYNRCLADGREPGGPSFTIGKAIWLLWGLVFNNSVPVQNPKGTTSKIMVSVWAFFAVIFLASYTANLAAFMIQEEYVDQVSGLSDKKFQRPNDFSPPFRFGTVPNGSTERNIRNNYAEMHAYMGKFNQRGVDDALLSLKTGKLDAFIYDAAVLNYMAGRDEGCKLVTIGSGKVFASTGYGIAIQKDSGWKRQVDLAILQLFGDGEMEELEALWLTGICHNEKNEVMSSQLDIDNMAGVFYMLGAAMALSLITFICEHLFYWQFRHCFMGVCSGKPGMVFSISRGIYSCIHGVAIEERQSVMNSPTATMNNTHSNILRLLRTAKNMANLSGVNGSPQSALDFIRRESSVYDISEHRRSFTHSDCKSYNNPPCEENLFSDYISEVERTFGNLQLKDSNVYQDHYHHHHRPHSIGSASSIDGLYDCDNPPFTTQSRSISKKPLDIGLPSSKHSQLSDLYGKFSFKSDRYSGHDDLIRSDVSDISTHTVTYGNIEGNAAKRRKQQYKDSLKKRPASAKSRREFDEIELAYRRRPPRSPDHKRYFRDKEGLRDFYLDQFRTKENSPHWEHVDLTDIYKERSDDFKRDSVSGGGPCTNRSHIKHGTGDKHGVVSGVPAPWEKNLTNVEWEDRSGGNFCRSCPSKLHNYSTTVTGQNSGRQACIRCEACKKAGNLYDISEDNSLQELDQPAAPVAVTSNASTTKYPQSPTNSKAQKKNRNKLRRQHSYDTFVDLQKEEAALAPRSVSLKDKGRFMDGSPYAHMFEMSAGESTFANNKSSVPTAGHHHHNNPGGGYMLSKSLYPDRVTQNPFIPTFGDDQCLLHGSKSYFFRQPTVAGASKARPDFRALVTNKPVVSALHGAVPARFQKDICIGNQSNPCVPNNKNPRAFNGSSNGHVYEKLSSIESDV

This test concerns the target T1, NMDA receptor composed of four subunits including 2 sets of heterodimers of NR1 and NR2B (Homo sapiens, UniProt Q13224).
T1 construct: host or cells: HEK293 (tetracycline-induced expression)
Kind of test: NR2B Ca2+ influx assay (FLIPR, Fluo-4) in HEK293 cells expressing human GRIN1 and GRIN2B. Format: cell-based. As to conditions: HEK293, 10 μM final compound concentration, glutamic acid/glycine-induced Ca2+ influx, read-out: inhibitory rate (10 μM compound concentration). In short, it runs like this:
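Inhibition rate was calculated from 5-min cumulative Fluo-4 signal (FLIPR, 3-s reads), using agonist-free buffer wells as 100% inhibition. Compound, 10 μM final, was applied 15 min before adding buffer with 30 μM glutamic acid and glycine to HEK293 cells with tetracycline-induced human NR1/NR2B, in HEPES pH 7.2 with 1.8 mM CaCl2.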
Regarding `COc1ncc(C(=O)NCc2cccc3[nH]ncc23)cc1Cl` [Example 169, 5-chloro-N-(1H-indazol-4-ylmethyl)-6-methoxynicotinamide], the inhibition at 10 µM was 70%.

Regarding `O=C(NCc1cccc2[nH]ncc12)c1ccc(OC(F)(F)F)nc1` [Example 170, N-(1H-indazol-4-ylmethyl)-6-(trifluoromethoxy)-nicotinamide], the inhibition at 10 µM is 76%.

Regarding `CCOc1ncc(C(=O)NCc2cccc3[nH]ncc23)cc1F` [Example 171, 6-ethoxy-5-fluoro-N-(1H-indazol-4-ylmethyl)nicotinamide], the inhibition at 10 µM turned out to be 85%.

On to `COc1ncc(C(=O)NCc2cccc3[nH]ncc23)cc1F` [Example 172, 5-fluoro-N-(1H-indazol-4-ylmethyl)-6-methoxynicotinamide], for which the inhibition at 10 µM was 60%.

On to `O=C(NCc1cccc2[nH]ncc12)c1cc(F)c(C(F)(F)F)c(F)c1` [Example 173, 3,5-difluoro-N-(1H-indazol-4-ylmethyl)-4-(trifluoromethyl)-benzamide], for which the inhibition at 10 µM was 80%.

With `O=C(NCc1cccc2[nH]ncc12)c1ccc(C(F)(F)F)c(F)c1` [Example 174, 3-fluoro-N-(1H-indazol-4-ylmethyl)-4-(trifluoromethyl)-benzamide], the inhibition at 10 µM was determined as 80%.

`O=C(NCc1cccc2[nH]ncc12)c1ccc(C(F)(F)F)cc1` [Example 175, N-(1H-indazol-4-ylmethyl)-4-(trifluoromethyl)-benzamide]: the inhibition at 10 µM amounted to 82%.

Consider `Cc1ccc(C(=O)NCc2cccc3[nH]ncc23)cc1F` [Example 176, 3-fluoro-N-(1H-indazol-4-ylmethyl)-4-methylbenzamide], for which the inhibition at 10 µM was 51%.

With `O=C(NCc1cccc2[nH]ncc12)c1ccc(C(F)F)cc1` [Example 177, 4-(difluoromethyl)-N-(1H-indazol-4-ylmethyl)benzamide], the inhibition at 10 µM was 52%.

Consider `O=C(NCc1cccc2[nH]ncc12)c1ccc(C(F)F)c(F)c1` [Example 178, 4-(difluoromethyl)-3-fluoro-N-(1H-indazol-4-ylmethyl)benzamide], for which the inhibition at 10 µM came to 70%.

`O=C(NCc1cccc2[nH]ncc12)c1ccc(OC(F)(F)F)c(F)c1` [Example 179, 3-fluoro-N-(1H-indazol-4-ylmethyl)-4-(trifluoromethoxy)-benzamide]: the inhibition at 10 µM is 96%.

With `COc1c(F)cc(C(=O)NCc2cccc3[nH]ncc23)cc1F` [Example 180, 3,5-difluoro-N-(1H-indazol-4-ylmethyl)-4-methoxybenzamide], the inhibition at 10 µM stood at 89%.

Consider `COc1ccc(C(=O)NCc2cccc3[nH]ncc23)cc1F` [Example 181, 3-fluoro-N-(1H-indazol-4-ylmethyl)-4-methoxybenzamide], for which the inhibition at 10 µM was found to be 67%.

`O=C(NCc1cccc2[nH]ncc12)c1ccc(OC(F)F)c(Cl)c1` [Example 182, 3-chloro-4-(difluoromethoxy)-N-(1H-indazol-4-ylmethyl)benzamide]: the inhibition at 10 µM turned out to be 97%.

For `O=C(NCc1cccc2[nH]ncc12)c1ccc(OC(F)F)cc1` [Example 183, 4-(difluoromethoxy)-N-(1H-indazol-4-ylmethyl)benzamide], the inhibition at 10 µM was found to be 87%.

As for `O=C(NCc1cccc2[nH]ncc12)c1cc(F)c(OC(F)F)c(F)c1` [Example 184, 4-(difluoromethoxy)-3,5-difluoro-N-(1H-indazol-4-ylmethyl)benzamide], the inhibition at 10 µM was determined as 93%.

For `Cc1ccc(C(=O)NCc2cccc3[nH]ncc23)cc1Cl` [Example 185, 3-chloro-N-(1H-indazol-4-ylmethyl)-4-methylbenzamide], the inhibition at 10 µM stood at 74%.

In the case of `O=C(NCc1cccc2[nH]ncc12)c1ccc(F)c(Cl)c1` [Example 186, 3-chloro-4-fluoro-N-(1H-indazol-4-ylmethyl)benzamide], the inhibition at 10 µM is 56%.

On to `O=C(NCc1cccc2[nH]ncc12)c1ccc(Cl)c(F)c1` [Example 187, 4-chloro-3-fluoro-N-(1H-indazol-4-ylmethyl)benzamide], for which the inhibition at 10 µM was 74%.

Take `O=C(NCc1cccc2[nH]ncc12)c1cc(F)c(F)c(Cl)c1` [Example 188, 3-chloro-4,5-difluoro-N-(1H-indazol-4-ylmethyl)benzamide]: the inhibition at 10 µM worked out at 52%.

As for `O=C(NCc1cccc2[nH]ncc12)c1cc(F)c(Cl)c(F)c1` [Example 189, 4-chloro-3,5-difluoro-N-(1H-indazol-4-ylmethyl)benzamide], the inhibition at 10 µM is 67%.

On to `O=C(NCc1cccc2[nH]ncc12)c1ccc(C(F)F)c(Cl)c1` [Example 190, 3-chloro-4-(difluoromethyl)-N-(1H-indazol-4-ylmethyl)benzamide], for which the inhibition at 10 µM stood at 86%.

As to `O=C(NCc1cccc2[nH]ncc12)c1cnc(OC(F)F)c(F)c1` [Example 191, 6-(difluoromethoxy)-5-fluoro-N-(1H-indazol-4-ylmethyl)nicotinamide], the inhibition at 10 µM came to 94%.

Regarding `O=C(NCc1cccc2[nH]ncc12)c1ccc(OC(F)F)c(F)c1` [Example 192, 4-(difluoromethoxy)-3-fluoro-N-(1H-indazol-4-ylmethyl)benzamide], the inhibition at 10 µM is 94%.

`COc1ncc(C(=O)NCc2c(C)ccc3[nH]nnc23)cc1F` [Example 193, 5-fluoro-6-methoxy-N-((5-methyl-1H-benzotriazol-4-yl)methyl)nicotinamide]: the inhibition at 10 µM worked out at 86%.

Turning to `Cc1ccc2[nH]nnc2c1CNC(=O)c1ccc(OC(F)(F)F)cc1` [Example 194, N-((5-methyl-1H-benzotriazol-4-yl)methyl)-4-(trifluoromethoxy)-benzamide], the inhibition at 10 µM amounted to 97%.

Regarding `Cc1ccc2[nH]nnc2c1CNC(=O)c1cc(F)c(C(F)(F)F)c(F)c1` [Example 195, 3,5-difluoro-N-((5-methyl-1H-benzotriazol-4-yl)methyl)-4-(trifluoromethyl)-benzamide], the inhibition at 10 µM was 91%.

In the case of `Cc1ccc2[nH]nnc2c1CNC(=O)c1cc(F)c(C)c(F)c1` [Example 196, 3,5-difluoro-4-methyl-N-((5-methyl-1H-benzotriazol-4-yl)methyl)benzamide], the inhibition at 10 µM turned out to be 78%.

Consider `COc1c(F)cc(C(=O)NCc2c(C)ccc3[nH]nnc23)cc1F` [Example 197, 3,5-difluoro-4-methoxy-N-((5-methyl-1H-benzotriazol-4-yl)methyl)benzamide], for which the inhibition at 10 µM worked out at 96%.

For `Cc1ccc2[nH]nnc2c1CNC(=O)c1cc(F)c(Cl)c(F)c1` [Example 198, 4-chloro-3,5-difluoro-N-((5-methyl-1H-benzotriazol-4-yl)methyl)benzamide], the inhibition at 10 µM was found to be 90%.

As for `Cc1ccc2[nH]nnc2c1CNC(=O)c1ccc(C(F)(F)F)c(F)c1` [Example 199, 3-fluoro-N-((5-methyl-1H-benzotriazol-4-yl)methyl)-4-(trifluoromethyl)-benzamide], the inhibition at 10 µM came out at 92%.

`Cc1ccc(C(=O)NCc2c(C)ccc3[nH]nnc23)cc1F` [Example 200, 3-fluoro-4-methyl-N-((5-methyl-1H-benzotriazol-4-yl)methyl)benzamide]: the inhibition at 10 µM worked out at 85%.

For `COc1ccc(C(=O)NCc2c(C)ccc3[nH]nnc23)cc1F` [Example 201, 3-fluoro-4-methoxy-N-((5-methyl-1H-benzotriazol-4-yl)methyl)benzamide], the inhibition at 10 µM was determined as 92%.

Take `Cc1ccc2[nH]nnc2c1CNC(=O)c1cc(F)c(F)c(Cl)c1` [Example 202, 3-chloro-4,5-difluoro-N-((5-methyl-1H-benzotriazol-4-yl)methyl)benzamide]: the inhibition at 10 µM stood at 83%.

Consider `O=C(NCc1c(C2CC2)ccc2[nH]nnc12)c1ccc(OC(F)(F)F)cc1` [Example 203, N-((5-cyclopropyl-1H-benzotriazol-4-yl)methyl)-4-(trifluoromethoxy)-benzamide], for which the inhibition at 10 µM came out at 93%.

With `COc1c(F)cc(C(=O)NCc2c(C3CC3)ccc3[nH]nnc23)cc1F` [Example 204, N-((5-cyclopropyl-1H-benzotriazol-4-yl)methyl)-3,5-difluoro-4-methoxybenzamide], the inhibition at 10 µM is 93%.

`CCc1ccc2[nH]nnc2c1CNC(=O)c1cc(F)c(C(F)(F)F)c(F)c1` [Example 205, N-((5-ethyl-1H-benzotriazol-4-yl)methyl)-3,5-difluoro-4-(trifluoromethyl)-benzamide]: the inhibition at 10 µM came to 87%.

As for `CCc1ccc2[nH]nnc2c1CNC(=O)c1cc(F)c(OC)c(F)c1` [Example 206, N-((5-ethyl-1H-benzotriazol-4-yl)methyl)-3,5-difluoro-4-methoxybenzamide], the inhibition at 10 µM worked out at 95%.

On to `COc1ccc2[nH]nnc2c1CNC(=O)c1cc(F)c(OC)c(F)c1` [Example 207, 3,5-difluoro-4-methoxy-N-((5-methoxy-1H-benzotriazol-4-yl)methyl)benzamide], for which the inhibition at 10 µM was found to be 98%.

`CCc1ccc2[nH]nnc2c1CNC(=O)c1cnc(OC)c(F)c1` [Example 208, N-((5-ethyl-1H-benzotriazol-4-yl)methyl)-5-fluoro-6-methoxynicotinamide]: the inhibition at 10 µM turned out to be 85%.

For the compound `CCc1ccc2[nH]nnc2c1CNC(=O)c1ccc(OC(F)(F)F)cc1` [Example 209, N-((5-ethyl-1H-benzotriazol-4-yl)methyl)-4-(trifluoromethoxy)-benzamide], the inhibition at 10 µM was 94%.

In the case of `COc1c(F)cc(C(=O)NCc2c(F)ccc3ncn(C)c23)cc1F` [Example 210, 3,5-difluoro-N-((6-fluoro-1-methyl-1H-benzimidazol-7-yl)methyl)-4-methoxybenzamide], the inhibition at 10 µM stood at 90%.

Take `COc1c(F)cc(C(=O)NCc2cccc3[nH]nnc23)cc1F` [Example 211, N-(1H-benzotriazol-4-ylmethyl)-3,5-difluoro-4-methoxybenzamide]: the inhibition at 10 µM was determined as 95%.
